The record followed here is patent publication US12064405B2, “Immunosuppressant comprising TSAHC or a pharmaceutically acceptable salts thereof as an active ingredient” (Seoul National University R&DB Foundation, priority 2020, dated 2024).

The target of one experiment is T1, TM4SF5 and IL6-Rα (Homo sapiens, UniProt O14894).
T1 construct: expressed in transfected cells
T1 sequence (O14894 1-197): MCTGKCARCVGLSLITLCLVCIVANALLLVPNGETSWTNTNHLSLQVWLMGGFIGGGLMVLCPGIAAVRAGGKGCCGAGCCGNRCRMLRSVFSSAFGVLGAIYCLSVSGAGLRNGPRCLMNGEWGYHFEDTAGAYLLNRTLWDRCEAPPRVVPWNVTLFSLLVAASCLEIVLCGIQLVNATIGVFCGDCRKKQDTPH
The experiment is described as follows: Binding of TM4SF5 and IL6-Rα (streptavidin-agarose precipitation, Western blotting). The experiment is classed as cell-based. The settings on record: hepatic epithelial cells expressing TM4SF5-Strep; FIG. 10. As for the experimental part:
Hepatic epithelial cells were infected with an empty vector (EV) or lentivirus expressing TM4SF5, and TSAHC was not treated (−) or treated (+) thereto. A cell extract was obtained, and TM4SF5-Strep was precipitated using strepavidin-agarose beads, and then Western blotting was performed with the IL-6 receptor, IL-6Rα antibody.

For experiment [1], the system named is mouse model in which liver fibrosis is induced by the treatment of CCl4. The experiment is described as follows: CCl4-induced liver damage, inflammation and fibrosis mouse model with TSAHC treatment. The settings on record: CCl4-treated mice, 4 weeks. The experiment is classed as in vivo. On the procedure:
In a mouse animal model that can be accompanied by cell damage and inflammation when liver fibrosis is induced by the treatment of CCl4, the animal groups periodically treated (+) or not treated (−) with TSAHC during the CCl4 treatment were obtained. The body weight during 4 weeks of the treatment and the liver tissue weight after 4 weeks were calculated as a ratio (liver/body weight), or the ALT liver levels were measured from blood samples. The liver tissue was obtained and Tm4sf5 mRNA was measured by qRT-PCR.
In an animal model treated with CCl4 to induce liver fibrosis, the animal groups periodically treated (+) or not treated (−) with TSAHC during the CCl4 treatment were obtained. After 4 weeks of the treatment, the liver tissue was obtained and H&E and Masson's trichrome staining was performed.
In an animal model treated with CCl4 to induce liver fibrosis, the animal groups periodically treated (+) or not treated (−) with TSAHC during the CCl4 treatment were obtained. After 4 weeks of the treatment, the liver tissue was obtained and immunostaining was performed for Ccl20 and Cxcl10.
In a mouse model that can be accompanied by cell damage and inflammation when liver fibrosis is induced by CCl4 treatment, the animal groups periodically treated (+) or not treated (−) with TSAHC during the CCl4 treatment were obtained. After 4 weeks of the treatment, the liver tissue was obtained and immunostaining was performed for F4/80, a macrophage marker.
In a mouse model that can be accompanied by cell damage and inflammation when liver fibrosis is induced by CCl4 treatment, the animal groups periodically treated (+) or not treated (−) with TSAHC during the CCl4 treatment were obtained. After 4 weeks of the treatment, the liver tissue was obtained and immunostaining was performed for α-SMA indicating the activation of hepatic stellate cells.

The test system of experiment [2] is SNU449-TM4SF5-HA cell line. The experiment is described as follows: RNA-Seq / mRNA-Seq of inflammatory cytokine and chemokine expression in TM4SF5-expressing hepatic epithelial cells. The settings on record: 10 μM TSAHC for 24 hours. It counts as cell-based, human. As for the experimental part:
To confirm whether the TSAHC treatment affects the expression and secretion of inflammatory cytokines and chemokines in TM4SF5 expression-dependent hepatic epithelial cells, RNA-Seq analysis and mRNA-Seq analysis comparing the mRNA expression were performed in SNU449-HA cell line in which the control vector was safely injected into SNU449, SNU449-TM4SF5-HA cell line injected with TM4SF5 expression vector, and SNU449-TM4SF5-HA cell line treated with 10 μM of TSAHC for 24 hours using the liver tissue of Tg^TM4SF5 overexpressing TM4SF5 or Tm4sf5^−/− KO C57BL/6 mice in Macrogen, Inc. (Seoul, Korea).
The experimental procedure for mRNA-Seq analysis included the followings. […] RNA library was constructed through qPCR using an agilent technologies 2100 bioanalyzer according to qPCR quantification protocol guide. Quality control analysis of the raw reads obtained through sequencing was performed. […] Aligned reads were generated after mapping the pre-treated reads to reference genome using HISAT2 program considering splice. Transcript assembly was performed through the String Tie program using paired information of the aligned reads based on the reference. The expression level obtained through the transcript quantification of each sample was calculated as a normalization value considering the transcript length and depth of coverage. […]

Experiment [3] has as its system cell lines expressing TM4SF5. The experiment is described as follows: qRT-PCR of M1-type macrophage chemokines/cytokines CCL2, TNF-α, IL-6, IL-1β. It counts as cell-based. As to conditions: cell line expressing TM4SF5, LPS and IFN-γ. On the procedure: Cell lines not expressing TM4SF5 (EV) or cell lines expressing thereof (TM4SF5) were treated (+) or not treated with LPS and IFN-γ, treated (+) or not treated with 2-DG (2-Deoxy-D-glucose) as a drug for inhibiting glycolysis at a given concentration, and additionally treated (+) or not treated with TSAHC (−). Then, the mRNA expression levels of CCL2, TNF-α, IL-6, and IL-1β, the chemokines/cytokines indicating the activation of M1-type macrophages, were confirmed by qRT-PCR.
Background: Real-time PCR tracks product formation cycle by cycle.

Experiment [4] deals with Hep3B cell line expressing TM4SF5. Description: qRT-PCR of CCL20 and CXCL10 mRNA in IL-6-treated Hep3B cell line. The experiment is classed as cell-based, human. The settings on record: IL-6 100 ng/ml, TSAHC 0.1 or 0.5 μM for 24 hours. As for the experimental part:
Hep3B cell line expressing TM4SF5 that was not treated with IL-6 or treated at a concentration of 100 ng/ml was treated with or without TSAHC at a concentration of 0.1 or 0.5 μM for 24 hours. Then, qRT-PCR was performed using the cells.
Specifically, to perform qRT-PCR, the cells or tissues were disrupted using Qiazol (Qiagen, USA), to which chloroform was added, and the upper […] layer was separated by centrifugation at 4° C., 12,000×g for 15 minutes. RNA was precipitated by adding isopropanol to the separated […] layer, followed by washing with 70% ethanol. RNA pellet was isolated by centrifugation at 7,500×g for 5 minutes, ethanol was evaporated for 10 minutes, and dissolved in 30 μl of DEPC-water. After removing gDNA from the dissolved RNA, it was reverse transcribed using a reverse transcription kit (Toyobo, Japan) to obtain cDNA. The expression was measured by real-time PCR (Biorad, USA) with the obtained cDNA using 2×Eva green master mix (Labopass, Korea) and 0.4 μM forward/reverse primers. The expression amount was calculated using the modified delta-delta Ct method of Pfaffl.

Another experiment deals with cells expressing TM4SF5. The experiment is described as follows: Activation of glycolytic function (acidification of extracellular solution, Seahorse). It counts as cell-based. As for the experimental part:
The cells expressing TM4SF5 were treated with vehicle, a negative control compound (4′-methoxy-4-dihydroxychalcone) or TSAHC. Then, the degree of activation of glycolytic function was measured by measuring the acidification of the extracellular solution due to glycolysis while additionally adding glucose at various concentrations using Seahorse equipment.

Turning to `Cc1ccc(S(=O)(=O)Nc2ccc(C(=O)/C=C/c3ccc(O)cc3)cc2)cc1` [TSAHC, 4′-(p-toluenesulfonylamido)-4-hydroxychalcone], the “binding of TM4SF5 and IL6-Rα” value on TM4SF5 and IL6-Rα is recorded as “inhibited”. The “Tm4sf5 mRNA expression level in liver tissue” value in experiment [1] (FIG. 19A) is given as “decreased”. In addition, the “liver tissue weight and body weight (ratio liver/body weight)” value in experiment [1] (FIG. 19C) is on record as “decreased”. In experiment [1] (FIG. 20), the “collagen accumulation (Masson's trichrome staining)” value was “decreased” and the “degree of liver tissue damage / irregular cell composition (H&E staining)” value was “decreased”. Besides, in experiment [1] (FIG. 21), the “Ccl20 mRNA expression level in liver tissue” value is recorded as “decreased” and the “Cxcl10 mRNA expression level in liver tissue” value is “decreased”. Also, the “F4/80 mRNA expression in liver tissue” value in experiment [1] (FIG. 22B) is given as “decreased”. In experiment [1] (FIG. 23B), the “α-SMA mRNA expression in liver tissue” value is reported as “decreased”. Moreover, the ALT level entry in experiment [1] (blood samples, FIG. 19B) is “decreased”. In experiment [2], the “expression and secretion of cytokines/chemokines (IL6, IL1β, TNFα, CXCL1, CXCL2, CXCL3, CXCL6, CXCL8, CCL2, CCL5, CCL20, CXCL10, CCR10) according to TM4SF5 expression” value is reported as “suppressed”. In addition, the “CCL2 mRNA expression level” value in experiment [3] (FIG. 11A) was “decreased”. Besides, the “TNF-α mRNA expression level” value in experiment [3] (FIG. 11B) is “decreased”. The “IL-6 mRNA expression level” value in experiment [3] (FIG. 11C) is on record as “decreased”. Moreover, in experiment [3] (FIG. 11D), the “IL-1β mRNA expression level” value is reported as “decreased”. The “CCL20 mRNA expression level increased by IL-6” value in experiment [4] (FIG. 4A) is given as “reduced”. Also, the “CXCL10 mRNA expression level increased by IL-6” value in experiment [4] (FIG. 4B) is “reduced”. Besides, the “glycolysis of the cells not expressing TM4SF5 (EV)” value in the experiment on cells expressing TM4SF5 (EV cell line, FIG. 8B) is “not changed”. The “glycolytic function of cells expressing TM4SF5” value with cells expressing TM4SF5 (various concentrations of glucose added, FIG. 8C) is recorded as “decreased”.
